Results: US20110135774A1, “Process for Preparing a Plant Extract of Passiflora Alata and Use of Said Extract in Cosmetic and Pharmaceutical Compositions” (priority 2007, published 2011)

How the values were obtained:
Format in all cases: cell-based
Conditions in all cases: Fibroblast
[1] = test system: IL-6 secretion; assay: Inhibition of IL-6 secretion in human dermal fibroblasts stimulated with LPS or UVB (Example 7.2)
Description: (§1) Dermis-derived human fibroblasts were incubated with lipopolysaccharide (LPS) or UV to induce the secretion of pro-inflammatory markers IL-6 and IL-8. The anti-inflammatory potential of the sample was identified by the reduction in the secretion of the pro-inflammatory markers. Material used: Dermis-derived human fibroblasts, kept in culture until the tenth passage at most. Sterile-culture plates with 96 wells, non-sterile plates with 96 wells, conical tubes of 15 ml and 50 ml, radiation chamber with UVB lamp. 96-well plates were prepared with 2×10^4 cells/well in 100 μl μl of DMEM containing 10% SFB. The cells were incubated overnight in a CO2 oven. The culture medium was discarded and the wells were washed with 200 μl PBS. 100 μl of DMEM containing 1% SFB and the suitable stimuli were added. Incubation was carried out in a CO2 oven overnight. […] 100 μl of PBS and the suitable stimuli were added. […] After stimulation, supernatants were collected, stored at −20° C. and assessed by ELISA (described below). In order to keep cell viability after stimulation, the cells were incubated with a Neutral Red solution for 3 hours and, after washing with 200 μl of PBS, 200 μl of development solution were added, and the reading was performed at 540 nm. […] The quantification of pro-inflammatory markers was determined from the comparisons with the standard curves specifically constructed for IL-6 or IL-8. […]

[2] = test system: IL-8 secretion; assay: Inhibition of IL-8 secretion in human dermal fibroblasts (Example 7.1)
Description: (§2) The objective of this test was to assess the anti-inflammatory potential of in vitro extracts, using human dermal fibroblast cultures. The statistical significance (p<0.05) of the data was verified by the analysis of variance (One-Way ANOVA) followed by a Tukey multiple comparison using the SYSTAT 10 software.
(§3) Human fibroblasts derived from the dermis were incubated with lipopolysaccharide (LPS) of Escherichia coli to induce the secretion of pro-inflammatory citokines IL-6 and IL-8 (Interleukin 6 and 8). The anti-inflammatory potential of the sample was identified by the reduction in the secretion of the pro-inflammatory markers. • Material used: Dermis-derived human fibroblasts, kept in culture until the tenth passage at most. […]
(§4) After stimulation, supernatants were collected, stored at −20° C. and analysed by ELISA (described below). In order to keep cell viability after stimulation, the cells were incubated with a Neutral Red solution for 3 hours and after washing with 200 μl of PBS, 200 μl of development solution were added, and the reading was performed at 540 nm. […]
(§5) For the ELISA test, 96-well plates were used. The quantification of pro-inflammatory markers was determined from the comparisons with the standard curves specifically constructed for IL-6 or IL-8. […]

[3] = test system: IL-6 secretion; assay: Inhibition of IL-6 secretion in human dermal fibroblasts (Example 7.1)
Description: as §2, §3, §4, §5

[4] = test system: IL-8 secretion; assay: Inhibition of IL-8 secretion in human dermal fibroblasts stimulated with LPS or UVB (Example 7.2)
Description: as §1

[5] = LPS 10 ng/ml + 5 uM, reference LPS
[6] = 5 uM + LPS 10 ng/ml, reference LPS
[7] = 5 uM, no LPS, reference Control
[8] = light or radiation study, UVB 0.23 J/cm2 + 5 uM, reference UVB

| SMILES | inhibition at 5 µM [1, 5] [%] | inhibition at 5 µM [2, 6] [%] | inhibition at 5 µM [2, 7] [%] | inhibition at 5 µM [3, 6] [%] | inhibition at 5 µM [3, 7] [%] | inhibition at 5 µM [4, 5] [%] | inhibition at 5 µM [1, 8] [%] | inhibition at 5 µM [4, 8] [%] |
| --- | --- | --- | --- | --- | --- | --- | --- | --- |
| C[C@@H]1C[C@H]2[C@@H]3CCC4=CC(=O)C=C[C@]4(C)[C@@]3(F)[C@@H](O)C[C@]2(C)[C@@]1(O)C(=O)CO [Dexamethasone] | 94 | 53 | 68 | 96 | 71 | 82 | – | – |
| C[C@]12CCC(=O)C=C1CC[C@@H]1[C@@H]2[C@@H](O)C[C@@]2(C)[C@H]1CC[C@]2(O)C(=O)CO [Hydrocortisone] | – | – | – | – | – | – | 71 | 79 |
